# Assays:
# [1] = molecular target: C-C chemokine receptor type 5 (Homo sapiens, UniProt P51681); experiment: Antagonist activity at CCR5 (unknown origin) expressed in HEK293 cells co-expressing Galpha16 assessed as intracellular calcium change incubated for 15 mins by Fluo-4 AM calcium flux assay; assay type: functional, cell-based
# [2] = tested on: Human immunodeficiency virus 1; experiment: Antiviral activity against HIV-1 Ba-L infected in human TZM-bl cells measured after 48 hrs incubation by luciferase based analysis; assay type: functional, organism-based; details: Human immunodeficiency virus 1, Ba-L
# [3] = Cytotoxicity against human TZM-bl cells incubated for 48 hrs by MTT assay; assay type: toxicity, cell-based
# [4] = Cytotoxicity against human PM1 cells incubated for 48 hrs by MTT assay; assay type: toxicity, cell-based
# [5] = Cytotoxicity against human HOS-CD4-CCR5 cells incubated for 48 hrs by MTT assay; assay type: toxicity, cell-based
# [6] = Cytotoxicity against human PBMC cells incubated for 48 hrs by MTT assay; assay type: toxicity, cell-based
# [7] = tested on: Human immunodeficiency virus 1; experiment: Antiviral activity against HIV-1 SF162 infected in human TZM-bl cells measured after 48 hrs incubation by luciferase based analysis; assay type: functional, organism-based; details: Human immunodeficiency virus 1, SF162, TZM-bl
# [8] = tested on: Human immunodeficiency virus 1; experiment: Antiviral activity against HIV-1 YU-2 infected in human TZM-bl cells measured after 48 hrs incubation by luciferase based analysis; assay type: functional, organism-based; details: Human immunodeficiency virus 1, YU-2, TZM-bl, 48 h
# [9] = tested on: Human immunodeficiency virus 1; experiment: Antiviral activity against HIV-1 Ba-L infected in human HOS-CD4-CCR5 cells measured after 48 hrs incubation by ELISA based p24 antigen assay; assay type: functional, organism-based; details: Human immunodeficiency virus 1, Ba-L
# [10] = tested on: Human immunodeficiency virus 1; experiment: Antiviral activity against HIV-1 Ba-L infected in human PM1 cells measured after 48 hrs incubation by ELISA based p24 antigen assay; assay type: functional, organism-based; details: Human immunodeficiency virus 1, Ba-L, PM1, 48 h
# [11] = tested on: Human immunodeficiency virus 1; experiment: Antiviral activity against HIV-1 IIIB infected in human TZM-bl cells measured after 48 hrs incubation by luciferase based analysis; assay type: functional, organism-based; details: Human immunodeficiency virus 1, IIIB
# [12] = tested on: Human immunodeficiency virus 1; experiment: Antiviral activity against HIV-1 KM018 clinical isolate infected in human PBMC measured after 48 hrs incubation by luciferase based analysis; assay type: functional, organism-based; details: Human immunodeficiency virus 1, KM018, PBMC
# [13] = tested on: Human immunodeficiency virus 1; experiment: Antiviral activity against HIV-1 KIZ001 clinical isolate infected in human PBMC measured after 48 hrs incubation by luciferase based analysis; assay type: functional, organism-based; details: Human immunodeficiency virus 1, KIZ001, PBMC
# [14] = tested on: Human immunodeficiency virus 1; experiment: Antiviral activity against HIV-1 KIZ006 clinical isolate infected in human PBMC measured after 48 hrs incubation by luciferase based analysis; assay type: functional, organism-based; details: Human immunodeficiency virus 1, KIZ006, PBMC
# [15] = tested on: Human immunodeficiency virus 1; experiment: Antiviral activity against HIV-1 YU-2 (G140S/Q148H) infected in human TZM-bl cells measured after 48 hrs incubation by luciferase based analysis; assay type: functional, organism-based; details: Human immunodeficiency virus 1, YU-2 (G140S/Q148H)
# [16] = tested on: Human immunodeficiency virus 1; experiment: Synergistic antiviral activity against HIV-1 Ba-L infected in human TZM-bl cells assessed as combination index in presence of zidovudine; assay type: functional
# [17] = tested on: Human immunodeficiency virus 1; experiment: Synergistic antiviral activity against HIV-1 Ba-L infected in human TZM-bl cells assessed as combination index in presence of lamivudine; assay type: functional
# [18] = tested on: Human immunodeficiency virus 1; experiment: Synergistic antiviral activity against HIV-1 Ba-L infected in human TZM-bl cells assessed as combination index in presence of tenofovir; assay type: functional
# [19] = tested on: Human immunodeficiency virus 1; experiment: Synergistic antiviral activity against HIV-1 Ba-L infected in human TZM-bl cells assessed as combination index in presence of etravirine; assay type: functional
# [20] = tested on: Human immunodeficiency virus 1; experiment: Synergistic antiviral activity against HIV-1 Ba-L infected in human TZM-bl cells assessed as combination index in presence of emtricitabine; assay type: functional
# [21] = tested on: Human immunodeficiency virus 1; experiment: Synergistic antiviral activity against HIV-1 Ba-L infected in human TZM-bl cells assessed as combination index in presence of nevirapine; assay type: functional
# [22] = tested on: Human immunodeficiency virus 1; experiment: Synergistic antiviral activity against HIV-1 Ba-L infected in human TZM-bl cells assessed as combination index in presence of efavirenz; assay type: functional
# [23] = tested on: Human immunodeficiency virus 1; experiment: Synergistic antiviral activity against HIV-1 Ba-L infected in human TZM-bl cells assessed as combination index in presence of raltegravir; assay type: functional
# [24] = tested on: Human immunodeficiency virus 1; experiment: Synergistic antiviral activity against HIV-1 Ba-L infected in human TZM-bl cells assessed as combination index in presence of dolutegravir; assay type: functional
# [25] = tested on: Human immunodeficiency virus 1; experiment: Synergistic antiviral activity against HIV-1 Ba-L infected in human TZM-bl cells assessed as combination index in presence of indinavir; assay type: functional
# [26] = tested on: Human immunodeficiency virus 1; experiment: Synergistic antiviral activity against HIV-1 Ba-L infected in human TZM-bl cells assessed as combination index in presence of T-20; assay type: functional
# [27] = Cmax in Sprague-Dawley rat at 10 mg/kg, po measured upto 24 hrs; assay type: ADME, organism-based; set-up: time < 24 hrs, dose 10 mg/kg, route po; details: in vivo
# [28] = Tmax in Sprague-Dawley rat at 10 mg/kg, po measured upto 24 hrs; assay type: ADME, organism-based; details: in vivo
# [29] = Half life in Sprague-Dawley rat at 10 mg/kg, po measured upto 24 hrs; assay type: ADME, organism-based; details: in vivo
# [30] = AUC (0 to last) in Sprague-Dawley rat at 10 mg/kg, po measured upto 24 hrs; assay type: ADME, organism-based; set-up: dose 10 mg/kg, time < 24 hrs, route po; details: in vivo
# [31] = AUC (0 to infinitive) in Sprague-Dawley rat at 10 mg/kg, po measured upto 24 hrs; assay type: ADME, organism-based; set-up: dose 10 mg/kg, time < 24 hrs, route po; details: in vivo, 24 h
# [32] = MRT in Sprague-Dawley rat at 10 mg/kg, po measured upto 24 hrs; assay type: ADME, organism-based; details: in vivo
# [33] = Oral bioavailability in Sprague-Dawley rat at 10 mg/kg measured upto 24 hrs; assay type: ADME, organism-based; details: in vivo, po, 10 mg/kg, 24 h
# [34] = Half life in Sprague-Dawley rat at 2 mg/kg, iv measured upto 24 hrs; assay type: ADME, organism-based; details: Sprague-Dawley, in vivo
# [35] = AUC (0 to last) in Sprague-Dawley rat at 2 mg/kg, iv measured upto 24 hrs; assay type: ADME, organism-based; set-up: dose 2 mg/kg, time < 24 hrs, route iv; details: in vivo, 24 h
# [36] = AUC (0 to infinitive) in Sprague-Dawley rat at 2 mg/kg, iv measured upto 24 hrs; assay type: ADME, organism-based; set-up: dose 2 mg/kg, time < 24 hrs, route iv; details: in vivo, 24 h
# [37] = MRT in Sprague-Dawley rat at 2 mg/kg, iv measured upto 24 hrs; assay type: ADME, organism-based; details: Sprague-Dawley, in vivo, read-out: MRT
# Cytochrome P450 1A2 = molecular target: T1, Cytochrome P450 1A2 (Homo sapiens, UniProt P05177); experiment: Inhibition of CYP1A2 (unknown origin); assay type: ADME
# T1 sequence (P05177 whole entry): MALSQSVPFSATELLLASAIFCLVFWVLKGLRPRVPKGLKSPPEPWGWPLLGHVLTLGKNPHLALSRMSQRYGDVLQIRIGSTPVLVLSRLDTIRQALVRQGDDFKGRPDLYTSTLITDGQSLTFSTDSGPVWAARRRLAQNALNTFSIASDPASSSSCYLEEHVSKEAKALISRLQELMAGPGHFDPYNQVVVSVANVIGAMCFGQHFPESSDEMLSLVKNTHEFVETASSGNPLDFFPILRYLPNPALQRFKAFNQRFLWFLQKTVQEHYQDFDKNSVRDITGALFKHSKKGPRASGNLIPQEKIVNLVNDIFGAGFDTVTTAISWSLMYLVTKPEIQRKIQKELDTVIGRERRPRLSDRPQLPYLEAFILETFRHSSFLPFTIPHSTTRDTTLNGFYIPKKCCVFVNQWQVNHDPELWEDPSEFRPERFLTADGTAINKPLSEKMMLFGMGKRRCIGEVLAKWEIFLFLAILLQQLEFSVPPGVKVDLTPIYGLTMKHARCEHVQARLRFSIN
# Cytochrome P450 2C9 = Cytochrome P450 2C9 (Homo sapiens, UniProt P11712); experiment: Inhibition of CYP2C9 (unknown origin); assay type: ADME
# Cytochrome P450 2C19 = Cytochrome P450 2C19 (Homo sapiens, UniProt P33261); experiment: Inhibition of CYP2C19 (unknown origin); assay type: ADME
# Cytochrome P450 2D6 = Cytochrome P450 2D6 (Homo sapiens, UniProt P10635); experiment: Inhibition of CYP2D6 (unknown origin); assay type: ADME
# Cytochrome P450 3A4 [38] = molecular target: T2, Cytochrome P450 3A4 (Homo sapiens, UniProt P08684); experiment: Inhibition of CYP3A4 (unknown origin) using midazolam as substrate; assay type: ADME
# Cytochrome P450 3A4 [39] = molecular target: T2, Cytochrome P450 3A4; experiment: Inhibition of CYP3A4 (unknown origin) using testosterone as substrate; assay type: ADME
# in vitro [40] = details: human, TZM-bl cells
# Description: Therapeutic index, ratio of CC50 for human TZM-bl cells to EC50 for antiviral activity against HIV-1 Ba-L
# in vitro [41] = details: human, HOS-CD4-CCR5 cells
# Description: Therapeutic index, ratio of CC50 for human HOS-CD4-CCR5 cells to EC50 for antiviral activity against HIV-1 Ba-L
# in vitro [42] = details: human, PM1 cells
# Description: Therapeutic index, ratio of CC50 for human PM1 cells to EC50 for antiviral activity against HIV-1 Ba-L
# in vitro [43] = details: human, PM1 cells; remark: listed apart in the source
# Description: Therapeutic index, ratio of CC50 for human PM1 cells to EC50 for antiviral activity against HIV-1 YU-2
# in vitro [44] = details: human, PM1 cells; remark: listed apart in the source
# Description: Therapeutic index, ratio of CC50 for human PM1 cells to EC50 for antiviral activity against HIV-1 SF162
# in vitro [45] = details: human, PBMC
# Description: Therapeutic index, ratio of CC50 for human PBMC to EC50 for antiviral activity against HIV-1 KM018 clinical isolate
# in vitro [46] = details: human, PBMC; remark: listed apart in the source
# Description: Therapeutic index, ratio of CC50 for human PBMC to EC50 for antiviral activity against HIV-1 KIZ001 clinical isolate
# in vitro [47] = details: human, PBMC; remark: listed apart in the source
# Description: Therapeutic index, ratio of CC50 for human PBMC to EC50 for antiviral activity against HIV-1 KIZ006 clinical isolate
# T2 sequence (P08684 whole entry): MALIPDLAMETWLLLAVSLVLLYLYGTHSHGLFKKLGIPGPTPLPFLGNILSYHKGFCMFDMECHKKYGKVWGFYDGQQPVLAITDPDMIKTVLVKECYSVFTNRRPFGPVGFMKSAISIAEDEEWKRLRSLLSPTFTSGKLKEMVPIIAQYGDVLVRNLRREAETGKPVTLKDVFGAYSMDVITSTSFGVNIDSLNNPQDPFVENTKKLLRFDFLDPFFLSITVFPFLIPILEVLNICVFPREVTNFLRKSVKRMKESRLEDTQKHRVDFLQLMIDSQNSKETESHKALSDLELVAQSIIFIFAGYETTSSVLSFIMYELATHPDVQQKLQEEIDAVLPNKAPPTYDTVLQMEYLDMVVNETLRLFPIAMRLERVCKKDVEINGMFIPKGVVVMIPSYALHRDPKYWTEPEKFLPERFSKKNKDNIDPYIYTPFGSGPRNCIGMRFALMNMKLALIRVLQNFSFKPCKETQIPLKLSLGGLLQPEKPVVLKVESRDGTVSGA
# Cytochrome P450 2C19, sequence (P33261 whole entry): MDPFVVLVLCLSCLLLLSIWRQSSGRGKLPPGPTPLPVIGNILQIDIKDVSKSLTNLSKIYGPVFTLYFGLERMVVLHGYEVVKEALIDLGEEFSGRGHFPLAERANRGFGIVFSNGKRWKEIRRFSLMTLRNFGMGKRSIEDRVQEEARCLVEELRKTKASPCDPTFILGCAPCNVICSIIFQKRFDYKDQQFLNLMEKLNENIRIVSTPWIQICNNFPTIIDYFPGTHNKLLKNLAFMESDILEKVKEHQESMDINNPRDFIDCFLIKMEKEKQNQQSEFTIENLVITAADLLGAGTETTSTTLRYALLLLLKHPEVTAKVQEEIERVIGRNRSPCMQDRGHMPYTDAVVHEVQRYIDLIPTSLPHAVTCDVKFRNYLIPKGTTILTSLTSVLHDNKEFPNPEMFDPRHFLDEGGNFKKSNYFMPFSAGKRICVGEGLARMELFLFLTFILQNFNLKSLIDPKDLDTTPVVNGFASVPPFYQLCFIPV
# Cytochrome P450 2C9, sequence (P11712 whole entry): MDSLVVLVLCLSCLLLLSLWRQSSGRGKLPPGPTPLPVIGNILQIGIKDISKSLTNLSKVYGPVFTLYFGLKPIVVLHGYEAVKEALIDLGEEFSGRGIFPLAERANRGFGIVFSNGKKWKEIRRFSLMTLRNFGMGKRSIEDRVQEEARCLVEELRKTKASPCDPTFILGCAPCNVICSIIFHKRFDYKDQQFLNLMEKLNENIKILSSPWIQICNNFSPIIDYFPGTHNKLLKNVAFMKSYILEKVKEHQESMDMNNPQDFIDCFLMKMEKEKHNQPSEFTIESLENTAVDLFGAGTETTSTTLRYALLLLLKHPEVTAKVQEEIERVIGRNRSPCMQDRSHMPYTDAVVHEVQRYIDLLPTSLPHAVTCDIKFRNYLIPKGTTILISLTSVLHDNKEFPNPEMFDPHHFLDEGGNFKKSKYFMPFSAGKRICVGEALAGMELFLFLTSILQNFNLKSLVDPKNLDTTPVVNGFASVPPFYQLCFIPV
# C-C chemokine receptor type 5, sequence (P51681 whole entry): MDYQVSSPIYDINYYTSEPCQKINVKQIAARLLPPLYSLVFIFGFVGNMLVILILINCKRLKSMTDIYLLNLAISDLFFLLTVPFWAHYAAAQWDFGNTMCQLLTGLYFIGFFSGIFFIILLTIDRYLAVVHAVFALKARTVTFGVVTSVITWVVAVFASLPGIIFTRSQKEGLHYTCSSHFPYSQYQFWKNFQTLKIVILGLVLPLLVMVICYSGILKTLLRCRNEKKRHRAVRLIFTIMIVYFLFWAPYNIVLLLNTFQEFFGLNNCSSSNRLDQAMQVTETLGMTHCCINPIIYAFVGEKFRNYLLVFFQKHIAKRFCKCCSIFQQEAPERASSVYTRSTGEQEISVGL
# Cytochrome P450 2D6, sequence (P10635 whole entry): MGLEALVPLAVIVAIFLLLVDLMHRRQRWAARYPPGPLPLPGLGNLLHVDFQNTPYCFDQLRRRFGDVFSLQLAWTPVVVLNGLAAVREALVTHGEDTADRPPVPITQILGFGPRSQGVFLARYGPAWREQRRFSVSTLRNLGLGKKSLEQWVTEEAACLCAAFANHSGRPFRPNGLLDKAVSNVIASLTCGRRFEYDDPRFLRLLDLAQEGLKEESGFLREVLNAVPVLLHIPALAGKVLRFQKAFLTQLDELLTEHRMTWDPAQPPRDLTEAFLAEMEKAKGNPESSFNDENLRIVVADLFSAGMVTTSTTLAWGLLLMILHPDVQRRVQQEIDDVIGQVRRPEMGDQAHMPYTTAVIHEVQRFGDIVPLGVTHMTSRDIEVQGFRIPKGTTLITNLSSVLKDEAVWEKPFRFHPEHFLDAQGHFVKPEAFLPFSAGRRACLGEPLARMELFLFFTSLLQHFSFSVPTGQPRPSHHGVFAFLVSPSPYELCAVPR
smiles,measurement,setting,value
CC(=O)N1CCc2c(nc(C)n2[C@@H]2C[C@H]3CC[C@@H](C2)N3CC[C@H](NC(=O)C2CCC(F)(F)CC2)c2ccsc2)C1,IC50,[1],15.9 nM
same,EC50,[2],10 nM
same,CC50 at 48 h,[3],> 200000 nM
same,CC50 at 48 h,[4],> 200000 nM
same,CC50 at 48 h,[5],> 200000 nM
same,CC50 at 48 h,[6],103000 nM
same,EC50,[7],7.64 nM
same,EC50,[8],2.89 nM
same,EC50,[9],0.66 nM
same,EC50,[10],0.29 nM
same,EC50,[11],> 1000 nM
same,EC50,[12],23.3 nM
same,EC50,[13],5.26 nM
same,EC50,[14],19 nM
same,EC50,[15],2.71 nM
same,CI,[16],0.6
same,CI,[17],0.69
same,CI,[18],0.47
same,CI,[19],0.75
same,CI,[20],0.44
same,CI,[21],0.41
same,CI,[22],0.85
same,CI,[23],0.46
same,CI,[24],0.5
same,CI,[25],0.95
same,CI,[26],0.33
same,Cmax,[27],66.4 ng/mL
same,Tmax,[28],2.67 h
same,half-life,[29],6.44 h
same,AUC(0-t) at 24 h,[30],270 ng·h/mL
same,AUC,[31],270 ng·h/mL
same,MRT,[32],9.16 h
same,F,[33],11.9%
same,half-life,[34],3.34 h
same,AUC,[35],270 ng·h/mL
same,AUC,[36],3.44 ng·h/mL
same,MRT,[37],9.16 h
same,IC50,Cytochrome P450 1A2,> 25000 nM
same,IC50,Cytochrome P450 2C9,> 25000 nM
same,IC50,Cytochrome P450 2C19,> 25000 nM
same,IC50,Cytochrome P450 2D6,> 25000 nM
same,IC50,Cytochrome P450 3A4 [38],> 25000 nM
same,IC50,Cytochrome P450 3A4 [39],> 25000 nM
same,selectivity ratio,in vitro [40],> 20000
same,selectivity ratio,in vitro [41],> 30300
same,selectivity ratio,in vitro [42],> 69000
same,selectivity ratio,in vitro [43],> 69200
same,selectivity ratio,in vitro [44],> 26200
same,selectivity ratio,in vitro [45],4400
same,selectivity ratio,in vitro [46],19500
same,selectivity ratio,in vitro [47],5390
